Source: PMC5874704, “In Silico Study, Synthesis, and Cytotoxic Activities of Porphyrin Derivatives” (Pharmaceuticals, 2018)

Tests used:
HeLa cell line = assay: MTT cytotoxicity test, HeLa; assay type: cell-based; conditions: Homo sapiens, 24 h treatment, triplicate, read-out: IC50 (μM) ± SD HeLa
Method: (§1) The human epithelioid cervix carcinoma cell line (HeLa), human ductal breast epithelial tumor cell line (T47D), Michigan Cancer Foundation-7 cell line (MCF-7), human colon carcinoma cell line (WIDR), hepatoblastoma-derived cell line (HepG2), and Vero cell line (derived from kidney of African green monkey) were purchased from ATCC by the Faculty of Medicine Gadjah Mada University. The cell lines were cultured in Dulbecco’s Modified Eagle Medium (DMEM, Gibco), except for Vero cell line, which was cultured in Medium-199 (M-199, Gibco). Other chemicals, i.e., potassium dihydrogen phosphate, sodium chloride, potassium chloride, sodium hydrogen phosphate, dimethyl sulfoxide, sodium dodecyl sulphate, HEPES, sodium bicarbonate, and 3-(4,5-dimetiltiazol-2-il)-2,5-difeniltetrazolium bromide (MTT) were purchased from Sigma-Aldrich. Fetal bovine serum, trypsin-EDTA 0.25%, and penicillin-streptomycin were purchased from Gibco, whereas Amphotericin B was purchased from Caisson. Phosphate-buffered saline (PBS) was obtained by mixing 0.2 g of KH2PO4, 8 g of NaCl, 0.2 g of KCl, 1.15 g of Na2HPO4, and 1 L of distilled water.
(§2) Confluent cells in the Petri dish was harvested by removing the growth media in Petri dish and adding 1 mL of trypsin-EDTA […]. Then the cells was incubated at incubator 37 °C, 5% CO2 for about three minutes. The suspension of cells was put in centrifuge tube, 2 mL of growth media was added with 7 mL of PBS. The mixture was centrifuged for 10 min at 1200 rpm. The supernatant was separated and 2–3 mL of growth media was added to the pellet cell for counting cell. The cell suspense was cultured in 96-well plates (10,000 cells/well). After 24 h, the porphyrin derivative compounds with series concentration were added to treat the cell cultures for another 24 h. The cells were treated by MTT solution for four hours at incubator (37 °C, 5% CO2) and the reaction was stopped by stopper solution (SDS 10% HCl). The plate was incubated at room temperature in dark condition for 24 h. The living cells were counted by reading the absorbance at 595 nm. The corresponding IC50 values were calculated using non-linear regression analysis (GraphPad Prism 7.0.3). Each test was run in triplicate.

WIDR cell line = assay: MTT cytotoxicity test, WIDR; assay type: cell-based; conditions: Homo sapiens, 24 h treatment, triplicate, read-out: IC50 (μM) ± SD WIDR
Method: as §1, §2

HepG2 cell line = assay: MTT cytotoxicity test, HepG2; assay type: cell-based; conditions: Homo sapiens, 24 h treatment, triplicate, read-out: IC50 (μM) ± SD HepG2
Method: as §1, §2

T47D cell line = assay: MTT cytotoxicity test, T47D; assay type: cell-based; conditions: Homo sapiens, 24 h treatment, triplicate, read-out: IC50 (μM) ± SD T47D
Method: as §1, §2

MCF-7 cell line = assay: MTT cytotoxicity test, MCF-7; assay type: cell-based; conditions: Homo sapiens, MCF7, 24 h treatment, triplicate, read-out: IC50 (μM) ± SD MCF-7
Method: as §1, §2

Vero cell line = assay: MTT cytotoxicity test, Vero (normal cells); assay type: cell-based, African green monkey; conditions: Chlorocebus sabaeus, 24 h treatment, triplicate, read-out: IC50 (μM) ± SD Vero
Method: as §1, §2

| Compound | IC50 (HeLa cell line) | IC50 (WIDR cell line) | IC50 (HepG2 cell line) | IC50 (T47D cell line) | IC50 (MCF-7 cell line) | IC50 (Vero cell line) | melting point |
| --- | --- | --- | --- | --- | --- | --- | --- |
| Cc1ccc(-c2c3nc(c(-c4ccc(C)cc4)c4ccc([nH]4)c(-c4ccc(C)cc4)c4nc(c(-c5ccc(C)cc5)c5ccc2[nH]5)C=C4)C=C3)cc1 [TTP, 5,10,15,20-tetrakis(p-tolyl)porphyrin] | 714.6 ± 1.1 µM | 969.8 ± 1.2 µM | 1120 ± 1.3 µM | 1241 ± 1.2 µM | 1305 ± 1.3 µM | 15600 µM | > 300 °C |
| CCOC(=O)COc1ccc(-c2c3nc(c(-c4ccc(C)cc4)c4ccc([nH]4)c(-c4ccc(OCC(=O)OCC)c(OCC(=O)OCC)c4)c4nc(c(-c5ccc(C)cc5)c5ccc2[nH]5)C=C4)C=C3)cc1OCC(=O)OCC [DBECPDTP, 5,15-di-[bis(3,4-ethylcarboxymethylenoxy)phenyl]-10,20-di(p-tolyl)porphyrin] | 201.7 ± 1.3 µM | 33.5 ± 1.1 µM | 37.2 ± 1.1 µM | 166.7 ± 1.3 µM | 42.1 ± 1.1 µM | 372.2 ± 1.1 µM | – |
| Cc1ccc(-c2c3nc(c(-c4ccc(C)cc4)c4ccc([nH]4)c(-c4ccc(N)cc4)c4nc(c(-c5ccc(C)cc5)c5ccc2[nH]5)C=C4)C=C3)cc1 [TrTMAP, 5,10,15-tris(tolyl)-20-mono(p-aminophenyl)porphyrin] | 593.1 ± 1.2 µM | 835.4 ± 1.3 µM | 107 ± 1.3 µM | 1099 ± 1.3 µM | 328.4 ± 1.4 µM | 4784 ± 1.2 µM | > 300 °C |
| CCOC(=O)COc1ccc(-c2c3nc(c(-c4ccc(OCC(=O)OCC)c(OCC(=O)OCC)c4)c4ccc([nH]4)c(-c4cnn(C)c4)c4nc(c(-c5cnn(C)c5)c5ccc2[nH]5)C=C4)C=C3)cc1OCC(=O)OCC [cDBECPDPzP, 5,10-di-[bis(3,4-ethylcarboxymethylenoxy)phenyl]-15,20-di-(methylpyrazole-4-yl)porphyrin] | 1083 ± 1.2 µM | 28.9 ± 1.1 µM | 28.6 ± 1.2 µM | 164.5 ± 1.2 µM | 47.9 ± 1.1 µM | 548.8 ± 1.2 µM | – |
| Brc1ccc(-c2c3nc(c(-c4ccc(Br)cc4)c4ccc([nH]4)c(-c4ccc(Br)cc4)c4nc(c(-c5ccc(Br)cc5)c5ccc2[nH]5)C=C4)C=C3)cc1 [TBrPP, 5,10,15,20-tetrakis(p-bromophenyl)porphyrin] | 595.6 ± 1.3 µM | 772.7 ± 1.3 µM | 882.7 ± 1.2 µM | 443.9 ± 1.1 µM | 870.6 ± 1.3 µM | 1176 ± 1.1 µM | > 300 °C |
| Nc1ccc(-c2c3nc(c(-c4ccc(N)cc4)c4ccc([nH]4)c(-c4ccc(N)cc4)c4nc(c(-c5ccc(N)cc5)c5ccc2[nH]5)C=C4)C=C3)cc1 [TAPP, 5,10,15,20-tetrakis(p-aminophenyl)porphyrin] | 1007 ± 1.1 µM | 205.1 ± 1.2 µM | 36 ± 1.2 µM | 332.6 ± 1.2 µM | 262.2 ± 1.3 µM | 2264 ± 1.2 µM | – |
| CCOC(=O)COc1ccc(-c2c3nc(c(-c4cnn(C)c4)c4ccc([nH]4)c(-c4ccc(OCC(=O)OCC)c(OCC(=O)OCC)c4)c4nc(c(-c5cnn(C)c5)c5ccc2[nH]5)C=C4)C=C3)cc1OCC(=O)OCC [DBECPDPzP, 5,15-di-[bis(3,4-ethylcarboxymethylenoxy)phenyl]-10,20-di-(methylpyrazole-4-yl)porphyrin] | 941.9 ± 1.2 µM | 34.1 ± 1.1 µM | 31.7 ± 1.2 µM | 177.8 ± 1.2 µM | 64.2 ± 1.1 µM | 363.4 ± 1.1 µM | – |
| Cc1ccc(-c2c3nc(c(-c4ccc(C)cc4)c4ccc([nH]4)c(-c4ccc([N+](=O)[O-])cc4)c4nc(c(-c5ccc(C)cc5)c5ccc2[nH]5)C=C4)C=C3)cc1 [TrTMNP, 5,10,15-tris(tolyl)-20-mono(p-nitrophenyl)porphyrin] | 226.1 ± 1.1 µM | 897.5 ± 1.1 µM | 146.6 ± 1.2 µM | 5372 ± 1.4 µM | 505.2 ± 1.2 µM | 10100 µM | > 300 °C |
